{
  "source": "ChEMBL document CHEMBL1123898",
  "about": "“Antitumor imidazotetrazines. 14. Synthesis and antitumor activity of 6- and 8-substituted imidazo[5,1-d]-1,2,3,5-tetrazinones and 8-substituted pyrazolo[5,1-d]-1,2,3,5-tetrazinones” (1987)",
  "format_in_all_cases": "functional",
  "key": {"L1210 [1]": {"system": "L1210", "test": "Antitumor activity was assessed against L1210 tumors in B6D2F1 mouse by inoculation of 10e5 tumor cells through intraperitoneal route and mean death of animals (treated/control) was reported at 100 mg/kg peroral dose", "settings": "route oral"}, "[2]": {"test": "Antitumor activity was assessed against TLX5 tumors in CBA/CA mouse by inoculation of 2 x 10e5 tumor cells through subcutaneous route and mean death of animals (treated/control) was reported at 640 mg/kg iv dose"}, "L1210 [3]": {"system": "L1210", "test": "Antitumor activity was assessed against L1210 tumors in B6D2F1 mouse by inoculation of 10e5 tumor cells through intraperitoneal route and mean death of animals (treated/control) was reported at 200 mg/kg peroral dose", "settings": "route oral"}, "L1210 [4]": {"system": "L1210", "test": "Antitumor activity was assessed against L1210 tumors in B6D2F1 mouse by inoculation of 10e5 tumor cells through intraperitoneal route and mean death of animals (treated/control) was reported at 50 mg/kg peroral dose", "settings": "route oral"}, "[5]": {"test": "Antitumor activity was assessed against TLX5 tumors in CBA/CA mouse by inoculation of 2 x 10e5 tumor cells through subcutaneous route and mean death of animals (treated/control) was reported at 320 mg/kg iv dose"}, "[6]": {"test": "Antitumor activity was assessed against TLX5 tumors in CBA/CA mouse by inoculation of 2 x 10e5 tumor cells through subcutaneous route and mean death of animals (treated/control) was reported at 160 mg/kg iv dose"}, "[7]": {"test": "Antitumor activity was assessed against TLX5 tumors in CBA/CA mouse by inoculation of 2 x 10e5 tumor cells through sc route and number of Survivors to duration was reported at 320 mg/kg iv dose; 1/5"}, "[8]": {"test": "Antitumor activity was assessed against TLX5 tumors in CBA/CA mouse by inoculation of 2 x 10e5 tumor cells through subcutaneous route and mean death of animals (treated/control) was reported at 40 mg/kg iv dose"}, "[9]": {"test": "Antitumor activity was assessed against TLX5 tumors in CBA/CA mouse by inoculation of 2 x 10e5 tumor cells through subcutaneous route and mean death of animals (treated/control) was reported at 80 mg/kg iv dose"}},
  "data": [
    {"smiles": "O=C(c1ncn2c(=O)n(CCCl)nnc12)N1CCCCC1", "values": [
      {"measurement": "T/C", "setting": "L1210 [1]", "result": 108, "unit": "%"},
      {"measurement": "T/C", "setting": "[2]", "result": 25, "unit": "%"},
      {"measurement": "T/C", "setting": "L1210 [3]", "result": 171, "unit": "%"},
      {"measurement": "T/C", "setting": "L1210 [4]", "result": 100, "unit": "%"},
      {"measurement": "T/C", "setting": "[5]", "result": ">234", "unit": "%"},
      {"measurement": "T/C", "setting": "[6]", "result": 120, "unit": "%"},
      {"measurement": "Survivors", "setting": "[7]", "result": 1},
      {"measurement": "T/C", "setting": "[8]", "result": 98, "unit": "%"},
      {"measurement": "T/C", "setting": "[9]", "result": 102, "unit": "%"}
    ]}
  ]
}
